Experimental data reported in patent publication US4725577A, “Biologically active lysine containing octapeptides” (Administrators of the Tulane Educational Fund, priority 1986, dated 1988).
Non-standard residues stand in square brackets, D forms with d. Residues, ends and D or L forms follow the SMILES beside them.

Key:
[1] = system: GH Release; assay: in vivo growth hormone bioassay in pentobarbital-anesthetized male rats, s.c. injection, plasma GH by RIA; parameters: species or system rat; conditions: for INHIBITION POTENCY GH in vivo: Table C, relative potency, SS-14 = 100, based on 4-point assays
Method: The in vivo growth hormone bioassay utilized is as follows:
Male Charles River CD rats (200-300 g.) with free access to food and water were anesthetized with sodium pentobarbital (60 mg.kg intraperitoneally). Thirty minutes later saline or octapeptide is injected subcutaneously and blood samples are drawn from the jugular vein 15 minutes after subcutaneous injection. The plasma is separated and assayed for growth hormone by RIA as described above. This in vivo bioassay is a modification of the methods used by Schally, et al., "Hypothalamic Peptide Hormones: Basic and Clinical Studies", "Hormonal Proteins and Peptides", C. H. Li, ed. Academic Press, N.Y. 7: 1-54, 1978; Meyers, C. A., Murphy, W. A., Redding T. W., Coy, D. H. and Schally, A. V., Proc. Natl. Acad. Sci., USA 77: 6171, 1980; Murphy, W. A., Meyers, C. A. and Coy, D. H., Endoc. 109: 491, (1981) as well as Veber et al., Pro. Natl. Acad. Sci., USA 75: 2636-2640 (1978). For some analogs, doses as low as 0.02 μg/100 g. or even 0.005 μg/ 100 g. are active. The potency of the octapeptides of this invention relative to somatostatin is illustrated in Tables A, B and C. Single dose assays are shown in Table A and 4 point assays at 2 dose levels in Tables B and C.

[2] = system: CPZ and Morphine stimulated GH secretion; assay: potency #3, time course of CPZ and Morphine stimulated GH secretion; assay type: in vivo; conditions: injected dose 2.0
Source text: *Based on time course of CPZ and Morphine stimulated GH secretion.

[3] = system: growth hormone release; assay: time course of growth hormone suppression in vivo in Nembutal-anesthetized male rats; parameters: species or system rat; conditions: 2 μg/100 g
Method: In order to determine the time course of the compounds of this invention, male rats are anesthetized with Nembutal and injected with saline or the test octapeptide as in the growth hormone potency assay above. Blood is collected from the jugular vein 15, 30, 45, 60, 90, 120 and 180 minutes post subcutaneous above. This time-course experiment for octapeptides on growth hormone release in vivo a significant suppression of plasma growth hormone. […] At the dose of 2 μg/100 g., the inhibitory effect of somatostatin on growth hormone release is no longer observed after 30 minutes (FIG. 1).

[4] = system: insulin release; assay: inhibition of insulin release in vivo in fasted male rats, i.v. injection, portal plasma insulin by RIA; parameters: species or system rat; conditions: Table C; relative potency, SS-14 = 100; based on 4-point assays
Method: The octapeptides of the present invention are also compared to synthetic somatostatin for their ability to inhibit the release of insulin and glucagon in vivo in male rats (CD strain, Charles River) weighing 250-300 g. The rats are kept in controlled temperature (24° C.) and light (0500-1900 h) conditions for 1 week before the assay. Rats are fasted 27-30 hours with free access to water then anesthetized with Nembutal (6 mg/100 g. intraperitoneally). After 30 minutes, saline or test peptide is injected into the jugular vein and blood is collected 5 minutes later from the hepatic portal vein then transferred into chilled tubes containing EDTA (2.5 mg/ml.) and Trasylol (500 K.I.U./ml.). Plasma is separated and stored at -20° C. until assayed for insulin and glucagon. Plasma insulin is determined by double antibody radioimmunoassay using a kit from Cambridge Medical Diagnostics.

[5] = system: pentagastrin or desglugastrin-induced gastric acid output; assay: gastric acid secretion in dogs with gastric fistulae; assay type: in vivo
Method: In order to compare some of the biological actions of the octapeptides of the present invention and somatostatin on gastrointestinal secretions and on the release of some gastrointestinal homones in dogs, the following procedures are used:
Mongrel dogs weighing 15-20 kg. are prepared surgical with gastric (GF) and pancreatic fistulae (PF) as described by Konturek, et al., (1976) 225, 497 and Konturek, et al., Gastroenterology, (1976) 58, 1-6. Secretions from the GF and PF are collected continuously at 15 minute intervals. Hydrogen ion and pepsin concentrations in the […] are also measured in 15- or 30-minute outputs. (Konturek, et al., J. Physiol. Lond., 255, 497 (1976) and Konturek, et al., (1976) supra.). Basal secretion is first collected for two 15 minute periods, and then the secretory stimulant for gastric and/or pancreatic secretion is administered for 31/2 hours. When the secretory rate reaches a subtained plateau, the octapeptides or somatostatin are given in standard doses (2-μg/Kg/hr.). i.v. for a one hour period. […]
In tests on gastric stimulation, pentagastrin or desglugastrin (glutaroyl-Ala-Tyr-Gly-Trp-Leu-Asp-Phe-NH2) is infused i.v. in a constant dose (3 μg/kg/hr.), shown previously to elicit near maximal gastric acid secretion. Gastric secretion is measured and acid content determined by titration with 0.1N NaOH. […]

[6] = system: well differentiated (WD), chemically induced ductal adenocarcinoma; conditions: given twice daily or as controlled-release microcapsules; pancreatic cancer model not given; cited from earlier work

Compound: CC(=O)N[C@H](Cc1ccccc1)C(=O)N[C@@H](CS)C(=O)N[C@@H](Cc1ccccc1)C(=O)N[C@H](Cc1c[nH]c2ccccc12)C(=O)N[C@@H](CCCCN)C(=O)N[C@H](C(=O)N[C@@H](CS)C(=O)N1CCC[C@H]1C(N)=O)[C@@H](C)O [RC-76-2H, AcD-PheCysPheD-TrpLysThrCysProNH2] (Ac-[dF]CF[dW]KTCP-NH2)
- INHIBITION POTENCY GH in vivo [1]: 1070

Compound: CC(=O)N[C@@H](Cc1ccccc1)C(=O)N[C@@H](CS)C(=O)N[C@@H](Cc1ccccc1)C(=O)N[C@H](Cc1c[nH]c2ccccc12)C(=O)N[C@@H](CCCCN)C(=O)N[C@H](C(=O)N[C@@H](CS)C(=O)N[C@H](C(N)=O)[C@@H](C)O)[C@@H](C)O [RC-101-I-2H, AcPheCysPheD-TrpLysThrCysThrNH2]
- INHIBITION POTENCY GH in vivo [1]: 11320

Compound: CC(=O)N[C@H](Cc1ccccc1)C(=O)N[C@@H](CS)C(=O)N[C@@H](Cc1ccccc1)C(=O)N[C@H](Cc1c[nH]c2ccccc12)C(=O)N[C@@H](CCCCN)C(=O)N[C@H](C(=O)N[C@@H](CS)C(=O)N[C@H](C(N)=O)[C@@H](C)O)[C@@H](C)O [RC-101-II-2H, AcD-PheCysPheD-TrpLysThrCysThrNH2]
- INHIBITION POTENCY GH in vivo [1]: 12900

Compound: CC(=O)N[C@@H](Cc1ccccc1)C(=O)N[C@H]1CSSC[C@@H](C(=O)N[C@H](C(N)=O)[C@@H](C)O)NC(=O)[C@H]([C@@H](C)O)NC(=O)[C@H](CCCCN)NC(=O)[C@@H](Cc2c[nH]c3ccccc23)NC(=O)[C@H](Cc2ccccc2)NC1=O [RC-101-I]
- INHIBITION POTENCY GH in vivo [1]: 13560

Compound: CC(=O)N[C@H](Cc1ccccc1)C(=O)N[C@H]1CSSC[C@@H](C(=O)N[C@H](C(N)=O)[C@@H](C)O)NC(=O)[C@H](C(C)C)NC(=O)[C@H](CCCCN)NC(=O)[C@@H](Cc2c[nH]c3ccccc23)NC(=O)[C@H](Cc2ccc(O)cc2)NC1=O [RC-161]
- INHIBITION POTENCY GH in vivo [1]: 5520

Compound: C[C@H](N)C(=O)NCC(=O)N[C@H]1CSSC[C@@H](C(=O)O)NC(=O)[C@H](CO)NC(=O)[C@H]([C@@H](C)O)NC(=O)[C@H](Cc2ccccc2)NC(=O)[C@H]([C@@H](C)O)NC(=O)[C@H](CCCCN)NC(=O)[C@H](Cc2c[nH]c3ccccc23)NC(=O)[C@H](Cc2ccccc2)NC(=O)[C@H](Cc2ccccc2)NC(=O)[C@H](CC(N)=O)NC(=O)[C@H](CCCCN)NC1=O [SS-14, Somatostatin]
- GH-RH LEVEL [2]: 0.1032
- time after which inhibitory effect on growth hormone release is no longer observed [3]: ≤ 30 min
- INHIBITION POTENCY INSULIN in vivo [4]: 100
- GH Level 15' ([1]; Potency assay #1 (89th experiment), 0.4 μg/100 g B.W., control 116 ± 10): 88 ± 22 ng/mL
- GH Level 15' ([1]; Potency assay #1, 1.6 μg/100 g B.W., control 116 ± 10): 53 ± 10 ng/mL
- GH Level 15' ([1]; Potency assay #2 (108th experiment), 0.2 μg/100 g B.W., control 211 ± 56): 171 ± 26 ng/mL
- GH Level 15' ([1]; Potency assay #2, 0.8 μg/100 g B.W., control 211 ± 56): 91 ± 12 ng/mL
- GH-Level mean ± SEM ([1]; Table A single dose assay, 2.00 μg/100 g B.W. s.c., saline control 374 ± 69): 50 ± 12 ng/mL
- GH-Level mean ± SEM ([1]; Table A single dose assay, 2.00 μg/100 g B.W. s.c., saline control 754 ± 155): 95 ± 31 ng/mL
- GH-Level mean ± SEM ([1]; Table B four-point assay, 0.4 μg/100 g B.W., saline control 277 ± 166): 86 ± 16 ng/mL
- GH-Level mean ± SEM ([1]; Table B four-point assay, 1.6 μg/100 g B.W., saline control 277 ± 166): 47 ± 17 ng/mL
- INHIBITION POTENCY GH in vivo [1]: 100
- duration of gastric acid inhibition after infusion ([5]; dogs with gastric fistulae): short-lived
- inhibition of gastric acid output from the gastric fistula ([5]; i.v. infusion for one hour, pentagastrin or desglugastrin stimulation): strongly inhibit

Compound: D-Trp-6-LH-RH
- tumor weight and volume [6]: significantly decreased
